Results: the supplement of paper PMC10307832

Columns and labels:
Experiment in all cases: relative viability (nuclei count vs DMSO), 5 days (fraction); higher = more cells survive
[1] = compound: Cn1cc(-c2cnn3c(N)c(Br)c([C@@H]4CCCNC4)nc23)cn1 + COc1cc2c(Oc3ccc(NC(=O)C4(C(=O)Nc5ccc(F)cc5)CC4)cc3F)ccnc2cc1OCCCN1CCOCC1 [Foretinib] (partner 0.25 µM)
In short: (§1)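 Lung cancer cell lines were pin-tool dosed in 1536-well plates on the day after seeding, with either a lone drug or a fixed anchor-drug dose plus five library-drug doses (not always all listed) in √10 steps. Nuclei were counted on 4× images after 5 days. Relative viability is the ratio of treated-well to vehicle-well nuclei counts, with each value a median of duplicate plates.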

[2] = compound: Cn1cc(-c2cnn3c(N)c(Br)c([C@@H]4CCCNC4)nc23)cn1 + NC(=O)Nc1cc(-c2cccc(F)c2)sc1C(=O)N[C@H]1CCCNC1 [AZD7762] (partner 0.2 µM)
In short: as §1

[3] = compound: Cn1cc(-c2cnn3c(N)c(Br)c([C@@H]4CCCNC4)nc23)cn1 + O=C(CCCCCCC(=O)Nc1ccccc1)NO [Vorinostat] (partner 1 µM)
In short: as §1

[4] = compound: Cn1cc(-c2cnn3c(N)c(Br)c([C@@H]4CCCNC4)nc23)cn1 + CS(=O)(=O)N1CCN(Cc2cc3nc(-c4cccc5[nH]ncc45)nc(N4CCOCC4)c3s2)CC1 [Pictilisib] (partner 1 µM)
In short: as §1

| Cell Line | relative viability ([1]; first compound 0.05 µM) | relative viability ([1]; first compound 0.1581 µM) | relative viability ([1]; first compound 0.5 µM) | relative viability ([1]; first compound 1.581 µM) | relative viability ([1]; first compound 5 µM) | relative viability ([2]; first compound 0.05 µM) | relative viability ([2]; first compound 0.1581 µM) | relative viability ([2]; first compound 0.5 µM) | relative viability ([2]; first compound 1.581 µM) | relative viability ([2]; first compound 5 µM) | relative viability ([3]; first compound 0.05 µM) | relative viability ([3]; first compound 0.1581 µM) | relative viability ([3]; first compound 0.5 µM) | relative viability ([3]; first compound 1.581 µM) | relative viability ([3]; first compound 5 µM) | relative viability ([4]; first compound 0.05 µM) | relative viability ([4]; first compound 0.1581 µM) | relative viability ([4]; first compound 0.5 µM) | relative viability ([4]; first compound 1.581 µM) | relative viability ([4]; first compound 5 µM) |
| --- | --- | --- | --- | --- | --- | --- | --- | --- | --- | --- | --- | --- | --- | --- | --- | --- | --- | --- | --- | --- |
| NCI-H1975 | 0.965 | 0.995 | 0.738 | 0.807 | 0.884 | 0.752 | 0.718 | 0.72 | 0.664 | 0.571 | 0.793 | 0.715 | 0.686 | 0.547 | 0.548 | 0.308 | 0.264 | 0.308 | 0.222 | 0.248 |
| NCI-H1437 | 1.24 | 1.4 | 1.41 | 1.32 | 1.19 | 1.11 | 1.18 | 1.08 | 1.01 | 0.889 | 0.907 | 0.927 | 0.955 | 0.692 | 0.508 | 0.438 | 0.411 | 0.418 | 0.292 | 0.306 |
| NCI-H1651 | 0.828 | 1 | 0.887 | 0.496 | 0.213 | 0.436 | 0.407 | 0.387 | 0.378 | 0.219 | 0.543 | 0.587 | 0.512 | 0.531 | 0.39 | 0.662 | 0.613 | 0.607 | 0.283 | 0.312 |
| LCLC-103H | 0.72 | 0.848 | 0.746 | 0.674 | 0.657 | 0.834 | 0.914 | 0.728 | 0.738 | 0.685 | 0.738 | 0.879 | 0.824 | 0.615 | 0.597 | 0.565 | 0.555 | 0.522 | 0.489 | 0.466 |
| NCI-H1666 | 0.936 | 1.05 | 0.888 | 1.05 | 0.919 | 0.78 | 0.82 | 0.813 | 0.845 | 0.861 | 1.16 | 1.03 | 0.886 | 0.906 | 0.844 | 0.657 | 0.429 | 0.338 | 0.464 | 0.413 |
| NCI-H1734 | 0.918 | 1.01 | 0.908 | 0.799 | 0.694 | 0.531 | 0.572 | 0.48 | 0.469 | 0.474 | 0.788 | 0.75 | 0.653 | 0.586 | 0.348 | 0.506 | 0.46 | 0.475 | 0.382 | 0.358 |
| EPLC-272H | 0.794 | 0.723 | 0.603 | 0.514 | 0.25 | 0.13 | 0.195 | 0.179 | 0.17 | 0.178 | 0.571 | 0.275 | 0.239 | 0.266 | 0.15 | 0.289 | 0.291 | 0.277 | 0.211 | 0.21 |
| BEN | 0.689 | 0.535 | 0.563 | 0.763 | 0.514 | 0.659 | 0.69 | 0.688 | 0.667 | 0.533 | 0.659 | 0.531 | 0.558 | 0.644 | 0.508 | 0.628 | 0.575 | 0.498 | 0.496 | 0.417 |
| ABC-1 | 0.951 | 1.07 | 1.02 | 0.872 | 0.4 | 0.689 | 0.984 | 0.755 | 0.599 | 0.5 |  | 0.955 | 1.04 | 1.02 | 0.356 | 0.763 | 0.666 | 0.721 | 0.54 | 0.341 |
| HCC-15 | 1.09 | 1.09 | 1.05 | 0.941 | 1 | 1.18 | 1.29 | 1.3 | 1.31 | 1.36 | 0.922 | 1 | 0.9 | 0.804 | 0.705 | 0.798 | 0.768 | 0.757 | 0.634 | 0.764 |
| NCI-H2170 | 1.02 | 0.934 | 0.963 | 1.02 | 1.1 | 0.923 | 0.919 | 0.753 | 0.822 | 0.973 | 0.826 | 0.882 | 0.659 | 0.796 | 0.989 | 0.281 | 0.299 | 0.262 | 0.274 | 0.295 |
| PC-3 [JPC-3] | 1.02 | 1.2 | 0.997 | 1.03 | 1.06 | 0.774 | 0.766 |  | 0.616 | 0.637 | 0.656 | 0.747 |  | 0.834 | 0.566 | 0.692 | 0.746 | 0.744 | 0.667 | 0.747 |
| NCI-H1993 | 0.747 | 0.806 | 0.483 | 0.667 | 0.657 | 0.642 | 0.84 | 0.616 | 0.733 | 0.664 | 0.803 | 0.873 | 0.921 | 0.713 | 0.636 | 0.816 | 0.789 |  | 0.819 | 0.686 |
| NCI-H358 | 0.685 | 0.768 | 0.654 | 0.59 | 0.628 | 0.417 |  | 0.447 | 0.38 | 0.36 | 0.748 | 0.732 | 0.422 | 0.455 | 0.302 | 0.314 | 0.346 | 0.309 | 0.352 | 0.304 |
| NCI-H1915 | 1.18 | 1.15 | 1.09 | 1.15 | 1.09 | 0.666 | 0.67 | 0.718 | 0.69 | 0.709 | 0.511 | 0.535 | 0.666 | 0.574 | 0.432 | 0.933 | 0.942 | 0.948 | 0.896 | 0.9 |
| RERF-LC-KJ | 0.98 | 0.881 | 0.865 | 0.727 | 0.86 | 1.1 | 0.864 | 1.1 | 0.872 | 0.749 | 0.636 | 0.808 | 0.802 | 0.599 | 0.6 | 0.593 | 0.53 | 0.384 | 0.359 | 0.346 |
| LOU-NH91 | 0.928 | 0.879 | 0.91 | 0.926 | 0.781 | 0.373 | 0.744 | 0.761 | 0.727 | 0.642 | 0.849 | 0.911 | 0.908 | 0.863 | 0.703 | 0.518 | 0.515 | 0.527 | 0.535 | 0.511 |
